Activity calls are given as the source filed them. The rule behind the calls is not given here.
Legend:
3T3-L1 [1] = assay: Reduction of adipogenesis in mouse 3T3L1 cells assessed as decrease in lipid accumulation measured on day 8 by fluorescence-based AdipoRed assay; format: functional, cell-based
[2] = Cytotoxicity against mouse 3T3L1 cells assessed as effect on lactate dehydrogenase release at 5 to 50 uM measured on day 8; format: cell-based; conditions: 3t3-l1, 50 µM
3T3-L1 [3] = assay: Effect on adipogenesis in mouse 3T3L1 cells in DI media assessed as increase in lipid accumulation at <25 uM after 8 days by fluorescence-based AdipoRed assay; format: functional, cell-based
3T3-L1 [4] = assay: Effect on adipogenesis in mouse 3T3L1 cells assessed as reduction in Adipoq gene expression at 5 to 50 uM after 8 days by real time quantitative PCR analysis relative to vehicle-treated control; format: functional, cell-based
[5] = Effect on adipogenesis in mature mouse 3T3L1 cells assessed as upregulation of Sirt1 gene expression; format: functional, cell-based; conditions: 3T3-L1
3T3-L1 [6] = assay: Reduction in lipogenesis in mouse 3T3L1 cells assessed as down regulation of Scd1 gene exression by real time-qPCR analysis; format: functional, cell-based
3T3-L1 [7] = assay: Induction of lipolysis in mouse 3T3L1 cells assessed as increase in glycerol level at 50 uM after 48 hrs by UV-Vis spectrophotometry; format: functional
[8] = biological target: T1, Peroxisome proliferator-activated receptor gamma (Mus musculus) (UniProt P37238); assay: Agonist activity at PPAR-gamma in mouse embryo fibroblast by transactivation assay relative to rosiglitazone
T1 sequence (whole entry): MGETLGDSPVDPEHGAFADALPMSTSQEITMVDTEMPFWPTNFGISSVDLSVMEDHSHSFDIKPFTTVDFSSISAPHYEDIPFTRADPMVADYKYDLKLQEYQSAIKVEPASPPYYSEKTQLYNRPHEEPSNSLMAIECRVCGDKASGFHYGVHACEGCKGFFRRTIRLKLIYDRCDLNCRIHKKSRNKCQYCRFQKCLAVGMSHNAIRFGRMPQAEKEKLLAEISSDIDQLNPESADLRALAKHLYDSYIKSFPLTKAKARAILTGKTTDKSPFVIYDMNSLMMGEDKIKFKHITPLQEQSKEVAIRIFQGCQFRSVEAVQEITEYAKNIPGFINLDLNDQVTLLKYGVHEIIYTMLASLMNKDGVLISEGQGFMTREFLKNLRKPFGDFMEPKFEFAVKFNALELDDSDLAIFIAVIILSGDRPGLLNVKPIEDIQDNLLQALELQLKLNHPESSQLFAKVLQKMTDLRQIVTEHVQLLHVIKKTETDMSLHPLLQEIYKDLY

3T3-L1 [9] = assay: Reduction in lipogenesis in mouse 3T3L1 cells assessed as down regulation of Fasn gene exression by real time-qPCR analysis; format: functional, cell-based
[10] = biological target: T2, Peroxisome proliferator-activated receptor alpha (Homo sapiens) (UniProt Q07869); assay: Agonist activity at PPAR-alpha (unknown origin) by transactivation assay
T2 sequence (whole entry): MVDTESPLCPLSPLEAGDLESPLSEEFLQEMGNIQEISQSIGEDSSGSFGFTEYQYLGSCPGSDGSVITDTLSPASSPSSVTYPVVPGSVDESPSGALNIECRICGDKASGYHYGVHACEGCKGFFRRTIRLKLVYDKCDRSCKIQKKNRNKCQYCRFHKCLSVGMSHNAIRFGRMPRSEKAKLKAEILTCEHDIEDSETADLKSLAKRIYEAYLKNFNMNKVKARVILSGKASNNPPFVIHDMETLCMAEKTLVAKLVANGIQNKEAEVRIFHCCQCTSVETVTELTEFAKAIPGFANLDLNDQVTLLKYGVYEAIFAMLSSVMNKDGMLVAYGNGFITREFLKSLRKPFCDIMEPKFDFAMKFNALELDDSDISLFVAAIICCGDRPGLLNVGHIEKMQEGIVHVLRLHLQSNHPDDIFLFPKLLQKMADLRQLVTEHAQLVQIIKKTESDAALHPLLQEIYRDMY

3T3-L1 [11] = assay: Effect on adipogenesis in mouse 3T3L1 cells assessed as reduction in Fabp4 gene expression at 5 to 50 uM after 4 days by real time quantitative PCR analysis relative to vehicle-treated control; format: functional, cell-based
3T3-L1 [12] = assay: Reduction in lipogenesis in mouse 3T3L1 cells assessed as down regulation of Srebf1 gene exression by real time-qPCR analysis; format: functional, cell-based
[13] = biological target: T3, Peroxisome proliferator-activated receptor delta (Homo sapiens) (UniProt Q03181); assay: Agonist activity at PPAR-delta (unknown origin) by transactivation assay
T3 sequence (whole entry): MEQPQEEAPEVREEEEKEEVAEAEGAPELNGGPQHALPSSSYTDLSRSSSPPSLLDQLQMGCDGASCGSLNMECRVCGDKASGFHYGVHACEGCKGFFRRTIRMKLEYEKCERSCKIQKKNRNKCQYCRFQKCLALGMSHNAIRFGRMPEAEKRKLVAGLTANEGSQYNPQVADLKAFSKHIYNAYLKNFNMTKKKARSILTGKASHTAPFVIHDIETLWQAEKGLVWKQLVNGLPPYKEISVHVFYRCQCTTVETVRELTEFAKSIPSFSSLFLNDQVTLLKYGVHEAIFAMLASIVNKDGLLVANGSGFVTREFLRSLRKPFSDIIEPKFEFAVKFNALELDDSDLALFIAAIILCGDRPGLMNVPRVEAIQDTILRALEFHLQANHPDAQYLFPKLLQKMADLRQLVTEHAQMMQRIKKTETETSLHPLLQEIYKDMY

3T3-L1 [14] = assay: Effect on adipogenesis in mouse 3T3L1 cells assessed as reduction in Pparg gene expression at 5 to 50 uM after 8 days by real time quantitative PCR analysis relative to vehicle-treated control; format: functional, cell-based
3T3-L1 [15] = assay: Induction of lipolysis in mouse 3T3L1 cells assessed as up-regulation of Acox1 gene exression by real time-qPCR analysis; format: functional, cell-based
3T3-L1 [16] = assay: Effect on adipogenesis in mouse 3T3L1 cells in DI media assessed as reduction in fat-laden mature adipocytes at 50 uM after 8 days by oil red o assay; format: functional, cell-based
3T3-L1 [17] = assay: Reduction in triglyceride release in mouse 3T3L1 cells at 50 uM after 48 hrs by oil red o assay; format: functional, cell-based
3T3-L1 [18] = assay: Reduction in lipogenesis in mouse 3T3L1 cells assessed as down regulation of Acaca gene exression by real time-qPCR analysis; format: functional, cell-based
3T3-L1 [19] = assay: Effect on adipogenesis in mouse 3T3L1 cells assessed as reduction in Pparg gene expression at 5 to 50 uM after 4 days by real time quantitative PCR analysis relative to vehicle-treated control; format: functional, cell-based
[20] = Cytotoxicity against mouse 3T3L1 cells assessed as LDH release at 50 uM after 48 hrs; format: cell-based; conditions: 3t3-l1, 48 h
3T3-L1 [21] = assay: Effect on adipogenesis in mouse 3T3L1 cells in DI media assessed as increase in fat-laden mature adipocytes at <25 uM after 8 days by oil red o assay; format: functional, cell-based

For `CCCCCCCc1oc2cc(O)ccc2c(=O)c1-c1ccc(OC)cc1`, the Activity (3T3-L1 [1]) was “Dose-dependent effect”, the Activity [2] was “Non-toxic” and the Activity (3T3-L1 [3]) was “Active”. For the same molecule, the Activity (3T3-L1 [4]) was “Dose-dependent effect”, the Activity [5] was “inactive” and the Activity (3T3-L1 [6]) was “Active”. For the same molecule, the “fold change (FC)” value (3T3-L1 [7]) was 2, the Activity [8] was “Dose-dependent effect” and the Activity (3T3-L1 [9]) was “Active”. For the same molecule, the Activity [10] was “inactive”, the Activity (3T3-L1 [11]) was “inactive” and the Activity (3T3-L1 [12]) was “Active”. For the same molecule, the Activity [13] was “inactive”, the Activity (3T3-L1 [14]) was “Dose-dependent effect” and the Activity (3T3-L1 [15]) was “Active”. For the same molecule, the Activity (3T3-L1 [16]) was “Active”, the Activity (3T3-L1 [17]) was “Active” and the Activity (3T3-L1 [18]) was “Active”. For the same molecule, the Activity (3T3-L1 [19]) was “Dose-dependent effect”, the Activity [20] was “Toxic” and the Activity (3T3-L1 [21]) was “Active”.
